Patent publication US20160221992A1, “DENDRITIC COMPOUNDS INCLUDING A CHELATING, FLUOROCHROME OR RECOGNITION AGENT, COMPOSITIONS INCLUDING SAME AND USES THEREOF” (UNIVERSITE DE STRASBOURG, priority 2013, published 2016)
One block for each molecule: values may come before it.

Experiments:
[1] = system: murine melanoma (B16FO line); experiment: Quantitative study of tumoral fixation and biodistribution of the radiolabeled compound (ex-vivo gamma counting after IV injection); format: in vivo, C57B16 mice; conditions: for % Elimination/Al / Ratio (g)/Al TU/kidneys / Ratio (g)/Al Tu/Liver / Ratio (g)/Al Tu/Lungs / Ratio (g)/Al Tu/blood / Tumor (g/Al %): Indium-111-radiolabeled, IV
Protocol: C57B16 mice bearing xenografts of murine melanoma (B16FO line) obtained by subcutaneous injection of 300 000 cells suspended in 100 μl of RPMI culture medium are injected subcutaneously in the back. The experiment is performed when the tumors are palpable. i.e. about 10 days […]. All the experiments (tumoral graft, injection and imaging) are carried out under isoflurane/oxygen (2.5%/2.5%) gas anesthesia.
Injection of 50 to 100 microliters of the radiolabeled solution, with a maximum activity of 20 MBQ, by direct intravenous injection (caudal vein). The activity of the empty syringe after injection+compress is also measured for calculating the actual activity injected (actual Ac injected=Ac normalized full syringe—normalized activity (empty syringe and compress). Normalization consists in calculating the theoretical activity at one and the same time chosen as reference (for example the time of injection). The measurements are performed on a regularly calibrated activity meter for medical use (Medisystem©).
(§1) Scintigraphic imaging is carried out using a dedicated small animal micro-5 imager SPECT-CT (BIOSCAN™). A planar scintigraphic image is obtained immediately after injection to verify absence of intracaudal stasis. If there is stasis, the mouse will be sacrificed at late times (24 or 48 h). Static scintigraphic images may be recorded at 2 h, 4 h, 24 h and 48 h (Imager micro-SPECT-CT BIOSCAN©).
This is done ex-vivo by gamma counting of the various samples, using a gamma well counter for medical use, regularly calibrated for the isotopes used (Tc-99m and In-111). The animals are euthanized according to the protocols allowed by the animal ethics committee at 2 h, 4 h, 24 h or 48 h. The main organs are removed (brain, spleen, kidneys, lungs, heart, alimentary canal, liver) as well as a fragment of skin, muscle, bone and a blood sample and the whole tumor. Each sample is weighed and its gamma activity is counted in a sample-changing well counter for dedicated medical use, calibrated for the radioelements used. The animal's carcass is also weighed after removing the tail; these samples are incinerated and their gamma activity is also measured. The gamma activity of the samples containing all the collected urine and the feces is also measured. The activity of each sample is normalized (relative to the time of injection), and the ratio of the activity of each sample is calculated relative to the total activity injected (=the sum of all of the activities measured except that of the tail), expressed in % per gram of tissue, for calculating the ratio of the activity present in the tumor relative to the main organs (liver, kidneys, lungs and blood). The percentage of the activity eliminated is calculated.
The mean values of all of the data for all of the mice whose data are exploitable are calculated, as well as after eliminating the animals with urinary excretion that is too quick (>50% at 2 h or 75% at 4 h, as well as the mice with tumors >2 g, as the existence of necrosis may distort the calculation of the ratio of fixation in the tumor).
The biodistribution data of the various dendrimer compounds coupled to the IFC01102 ligand (also called amine R) and to a chelating agent are compared with those of the ligand alone coupled to the DOTA chelating agent (compound AP045) and radiolabeled with the same radioelement. 8.5 Results with Compound APAG9-1 (Radiolabeled with Tc99m) The radiochemical purity is above 95%, according to the chromatographic profile obtained as described above (example 5). 12 animals were injected. The average activity injected is 3.5±2.4 MBq. 2 animals were euthanized at 2 h, 4 at 24 h and 48 h post-injection. Examples of planar image immediately post-injection and 2 hours post-injection are illustrated in FIG. 3.

[2] = Lymphatic drainage after intradermal injection in the hind paws (sentinel lymph node characterization, scintigraphy/SPECT); format: in vivo, mouse; conditions: SPECT 3 h after intradermal injection, indium-111, 10 MBq
Protocol: as §1, with “performed” for “carried out”, “stasis.” for “stasis. If there is stasis, the mouse will be sacrificed at late times (24 or 48 h).”
Intradermal injection of 1 to 20 microliters of a suspension of radiolabeled dendrimers with a hypodermic syringe in the pad of the hindpaw of a nude mouse. A whole-body planar scintigraphic image of the mouse is obtained 5 minutes after injection to verify absence of passage of the compound through the blood. Acquisition of tomographic images (SPECT) every 30 minutes to monitor the lymphatic drainage of the compound and determine the time of disappearance of the signal in the popliteal lymph node. 9.3.a Injection of Compound X1 Labeled with Tc99m (Generation 2 Molecule)

[3] = 48 post-IV, first series (all animals)
[4] = 48 post-IV, second series (two mice with too quick urinary excretion eliminated)
[5] = 2 h post-iv, first series (all animals)
[6] = 2 h post-iv, second series (two mice with too quick urinary excretion eliminated)
[7] = 4 h post-IV, first series (all animals)
[8] = 4 h post-IV, second series (two mice with too quick urinary excretion eliminated)
[9] = 24 h post-IV, first series (all animals)
[10] = 24 h post-IV, second series (two mice with too quick urinary excretion eliminated)

SMILES: CCN(CC)CCNC(=O)c1cnc2cc(NC(=O)NCCOCCOCCNC(=O)CCOCCOCCOCCOCCNC(=O)CCN(CCC(=O)NCCOCCOCCOCCOCCC(=O)NCCOCCOCCNC(=O)Nc3ccc4nc(C(=O)NCCN(CC)CC)cnc4c3)Cc3cn(CCOCCOCCOCCOCCOCCOCCOCCNC(=O)CN4CCN(CC(=O)O)CCN(CC(=O)O)CCN(CC(=O)O)CC4)nn3)ccc2n1 [AP071]
- % Elimination/Al [1, 3]: 8.5E+01%
- Ratio (g)/Al TU/kidneys [1, 3]: 3.15E−01
- Ratio (g)/Al Tu/Liver [1, 3]: 4.79E−01
- Ratio (g)/Al Tu/Lungs [1, 3]: 2.85E+00
- Ratio (g)/Al Tu/blood [1, 3]: 1.17E+01
- Tumor (g/Al %) [1, 3]: 3.40E−01 g/Al %
- % Elimination/Al [1, 4]: 8.5E+01%
- Ratio (g)/Al TU/kidneys [1, 4]: 3.15E−01
- Ratio (g)/Al Tu/Liver [1, 4]: 4.79E−01
- Ratio (g)/Al Tu/Lungs [1, 4]: 2.86E+00
- Ratio (g)/Al Tu/blood [1, 4]: 1.17E+01
- Tumor (g/Al %) [1, 4]: 3.40E−01 g/Al %
- % Elimination/Al [1, 5]: 6.0E+01%
- Ratio (g)/Al TU/kidneys [1, 5]: 2.41E−02
- Ratio (g)/Al Tu/Liver [1, 5]: 1.38E−01
- Ratio (g)/Al Tu/Lungs [1, 5]: 2.43E−01
- Ratio (g)/Al Tu/blood [1, 5]: 8.69E−01
- Tumor (g/Al %) [1, 5]: 4.42E+00 g/Al %
- % Elimination/Al [1, 6]: 5.1E+01%
- Ratio (g)/Al TU/kidneys [1, 6]: 2.25E−01
- Ratio (g)/Al Tu/Liver [1, 6]: 4.89E−01
- Ratio (g)/Al Tu/Lungs [1, 6]: 9.54E−01
- Ratio (g)/Al Tu/blood [1, 6]: 2.73E+00
- Tumor (g/Al %) [1, 6]: 6.57E+00 g/Al %
- tumoral uptake (in words) ([1]; 4 hours after IV injection, Indium-111): very high
- % Elimination/Al [1, 7]: 7.3E+01%
- Ratio (g)/Al TU/kidneys [1, 7]: 1.12E+00
- Ratio (g)/Al Tu/Liver [1, 7]: 2.09E+00
- Ratio (g)/Al Tu/Lungs [1, 7]: 6.20E+00
- Ratio (g)/Al Tu/blood [1, 7]: 3.92E+01
- Tumor (g/Al %) [1, 7]: 1.62E+01 g/Al %
- % Elimination/Al [1, 8]: 6.9E+01%
- Ratio (g)/Al TU/kidneys [1, 8]: 1.39E+00
- Ratio (g)/Al Tu/Liver [1, 8]: 2.80E+00
- Ratio (g)/Al Tu/Lungs [1, 8]: 8.36E+00
- Ratio (g)/Al Tu/blood [1, 8]: 7.20E+01
- Tumor (g/Al %) [1, 8]: 2.25E+01 g/Al %
- % Elimination/Al [1, 9]: 8.5E+01%
- Ratio (g)/Al TU/kidneys [1, 9]: 4.61E−01
- Ratio (g)/Al Tu/Liver [1, 9]: 6.98E−01
- Ratio (g)/Al Tu/Lungs [1, 9]: 2.88E+00
- Ratio (g)/Al Tu/blood [1, 9]: 9.46E+00
- Tumor (g/Al %) [1, 9]: 3.07E+00 g/Al %
- % Elimination/Al [1, 10]: 8.5E+01%
- Ratio (g)/Al TU/kidneys [1, 10]: 4.61E−01
- Ratio (g)/Al Tu/Liver [1, 10]: 6.98E−01
- Ratio (g)/Al Tu/Lungs [1, 10]: 2.88E+00
- Ratio (g)/Al Tu/blood [1, 10]: 9.46E+00
- Tumor (g/Al %) [1, 10]: 3.07E+00 g/Al %
- tumoral uptake compared with the ligand alone (AP045) ([1]; APAG22-1: at two hours post-IV): far higher

- drainage in the entire lymphatic network as far as the lumbar-aortic stage [2]: clearly visible
SMILES: COCCOCCOCCOCCOc1cc(C(=O)NCCCCNC(=O)CN2CCN(CC(=O)O)CCN(CC(=O)O)CCN(CC(=O)O)CC2)cc(OCCOCCOCCOCCOC)c1OCCOCCOCCOCCOC [APAG4]
